The record followed here is ChEMBL document CHEMBL1150509, “Cycloalkylpiperazines as HIV-1 protease inhibitors: enhanced oral absorption” (Bioorg Med Chem Lett, 1995).

In experiment [1] the test system is Human immunodeficiency virus 1. Description: Tested in vitro against MT-4 human lymphoid cells infected with the type IIIb isolate. It is filed as functional. To be noted: Human immunodeficiency virus 1, lymphoid; read-out: CIC95.
In experiment [2] the target is Human immunodeficiency virus type 1 protease (Human immunodeficiency virus 1, UniProt Q72874). Description: Tested in vitro for the ability to inhibit HIV-1 protease.
The subject of experiment [3] is Human immunodeficiency virus 1. Description: Ratio of CIC95 to that of IC50 was determined. It is filed as functional.

As to `CC(C)[C@@H]1[C@H](OC(=O)N[C@@H](Cc2ccccc2)[C@H](O)CN2CCN(C3CCCCCC3)C[C@H]2C(=O)NC(C)(C)C)CCS1(=O)=O`, the IC95 in experiment [1] is 0.2 µM.
Still for that read-out and setting: the value for `CC(C)[C@@H]1[C@H](OC(=O)N[C@@H](Cc2ccccc2)[C@H](O)CN2CCN(C3CCC3)C[C@H]2C(=O)NC(C)(C)C)CCS1(=O)=O` was 0.05 µM; that for `CCCCCCCCN1CCN(C[C@@H](O)[C@H](Cc2ccccc2)NC(=O)O[C@@H]2CCS(=O)(=O)[C@@H]2C(C)C)[C@H](C(=O)NC(C)(C)C)C1` was 0.2 µM.
What is called IC50 is the concentration that inhibits the measured activity by half. Turning to `CC(C)[C@@H]1[C@H](OC(=O)N[C@@H](Cc2ccccc2)[C@H](O)CN2CCN(C3CCSC3)C[C@H]2C(=O)NC(C)(C)C)CCS1(=O)=O` (some centres not stated), the IC95 in experiment [1] is > 0.2 µM. This molecule also registered an IC50 in experiment [2] of 8.3 nM.
Take `CC(C)[C@@H]1[C@H](OC(=O)N[C@@H](Cc2ccccc2)[C@H](O)CN2CCN(C3CC(c4ccccc4)C3)C[C@H]2C(=O)NC(C)(C)C)CCS1(=O)=O` (some centres not stated): the Ratio in experiment [3] was 26. The IC95 in experiment [1] is 0.1 µM. This molecule also registered an IC50 in experiment [2] of 3.8 nM.
Regarding `CC(C)[C@@H]1[C@H](OC(=O)N[C@@H](Cc2ccccc2)[C@H](O)CN2CCN(CC(C)(C)C)C[C@H]2C(=O)NC(C)(C)C)CCS1(=O)=O`, the IC95 in experiment [1] was found to be 0.2 µM.
On the same count and under the same terms, the value for `CC(C)[C@@H]1[C@H](OC(=O)N[C@@H](Cc2ccccc2)[C@H](O)CN2CCN(C(C)C)C[C@H]2C(=O)NC(C)(C)C)CCS1(=O)=O` was > 0.2 µM.
Turning to `CC(C)[C@@H]1[C@H](OC(=O)N[C@@H](Cc2ccccc2)[C@H](O)CN2CCN(C3CCOCC3)C[C@H]2C(=O)NC(C)(C)C)CCS1(=O)=O`, the IC95 in experiment [1] was > 0.2 µM. This molecule displayed an IC50 in experiment [2] of 34.6 nM.
As to `CC(C)[C@@H]1[C@H](OC(=O)N[C@@H](Cc2ccccc2)[C@H](O)CN2CCN(C3CC3)C[C@H]2C(=O)NC(C)(C)C)CCS1(=O)=O`, in experiment [1], the IC95 amounted to 0.1 µM.
Still for that read-out and setting: the figure for `CC(C)[C@@H]1[C@H](OC(=O)N[C@@H](Cc2ccccc2)[C@H](O)CN2CCN(C3CCSCC3)C[C@H]2C(=O)NC(C)(C)C)CCS1(=O)=O` is 0.2 µM; for `CC(C)[C@@H]1[C@H](OC(=O)N[C@@H](Cc2ccccc2)[C@H](O)CN2CCN(C3CCCC3)C[C@H]2C(=O)NC(C)(C)C)CCS1(=O)=O` it is 0.15 µM; for `CCCN1CCN(C[C@@H](O)[C@H](Cc2ccccc2)NC(=O)O[C@@H]2CCS(=O)(=O)[C@@H]2C(C)C)[C@H](C(=O)NC(C)(C)C)C1` it is 0.1 µM.
With `CC(C)[C@@H]1[C@H](OC(=O)N[C@@H](Cc2ccccc2)[C@H](O)CN2CCN(C3Cc4ccccc4C3)C[C@H]2C(=O)NC(C)(C)C)CCS1(=O)=O`, the Ratio in experiment [3] was 19. Also, in experiment [1], the IC95 was 0.1 µM. The molecule also gave an IC50 in experiment [2] of 5.3 nM.
For `CC(C)CN1CCN(C[C@@H](O)[C@H](Cc2ccccc2)NC(=O)O[C@@H]2CCS(=O)(=O)[C@@H]2C(C)C)[C@H](C(=O)NC(C)(C)C)C1`, the IC95 in experiment [1] stood at 0.1 µM.
Same read-out and setting: the figure for `CCC(CC)N1CCN(C[C@@H](O)[C@H](Cc2ccccc2)NC(=O)O[C@@H]2CCS(=O)(=O)[C@@H]2C(C)C)[C@H](C(=O)NC(C)(C)C)C1` is > 0.2 µM; for `CC(C)[C@@H]1[C@H](OC(=O)N[C@@H](Cc2ccccc2)[C@H](O)CN2CCN(C3CCCCC3)C[C@H]2C(=O)NC(C)(C)C)CCS1(=O)=O` it is 0.2 µM.
